Data as given in ChEMBL document CHEMBL4806956, “1-heteroaryl-indoline-4-carboxamides as modulators of gpr52 useful for the treatment or prevention of disorders related thereto” (2020).
Activity calls are given as the source filed them. No cut-off for these calls is given here.

Legend:
[1] = target: G-protein coupled receptor 52 (Mus musculus) (UniProt P0C5J4); test: In vivo agonist activity at GPR52 in C57BL/6 mouse assessed as inhibition of basal locomotor activity at 10 mg/kg, po measured for 60 mins starting at 15 mins post-drug challenge; format: functional, organism-based; conditions: time 75.0 min
[2] = Ratio of drug level in brain to plasma in C57BL/6 mouse at 10 mg/kg, po measured after 60 mins by LC/MS/MS analysis; format: ADME, organism-based; conditions: brain and plasma, read-out: BPR
[3] = Ratio of drug level in brain to plasma in C57BL/6 mouse at 3 mg/kg, po measured after 60 mins by LC/MS/MS analysis; format: ADME, organism-based; conditions: brain and plasma, read-out: BPR
Rattus norvegicus [4] = test: Antipsychotic activity in Sprague-Dawley rat assessed as inhibition of amphetamine-stimulated locomotor activity at 0.5 to 20 mg/kg, po administered 15 mins prior to amphetamine stimulation and measured for 30 to 60 mins post-drug dosage; format: functional, organism-based; conditions: dose 0.5-20 mg/kg, time 30-60 min
[5] = Toxicity in Sprague-Dawley rat assessed as inhibition of basal locomotor activity at 20 mg/kg, po; format: organism-based; conditions: in vivo
[6] = target: G-protein coupled receptor 52 (Mus musculus) (UniProt P0C5J4); test: In vivo agonist activity at GPR52 in po dosed C57BL/6 mouse assessed as inhibition of basal locomotor activity measured for 60 mins starting at 15 mins post-drug challenge; format: functional, organism-based; conditions: time 75.0 min
Rattus norvegicus [7] = test: Antipsychotic activity in Sprague-Dawley rat assessed as inhibition of amphetamine-induced disruption of prepulse inhibition at 5 to 20 mg/kg, po administered 15 mins prior to amphetamine challenge and measured after 15 mins; format: functional, organism-based; conditions: dose 5-20 mg/kg, time 30.0 min
[8] = Induction of hyperprolactinemia in Sprague-Dawley rat assessed as increase in prolactin release in plasma at 1 to 100 mg/kg, po measured after 60 mins by ELISA; format: organism-based; conditions: in vivo, 1 h, dose 1-100 mg/kg
Mus musculus [9] = test: Antipsychotic activity in 129Sv/Ev mouse assessed as inhibition of MK801-induced disruption of prepulse inhibition at 10 mg/kg, po co-administered with haloperidol at 15 mins prior to MK801 challenge and measured after 15 mins; format: functional, organism-based; conditions: time 30.0 min
Rattus norvegicus [10] = test: Antipsychotic activity in Sprague-Dawley rat assessed as inhibition of MK801-induced disruption of prepulse inhibition at 5 to 20 mg/kg, po administered 15 mins prior to […] and measured after 15 mins; format: functional, organism-based; conditions: dose 5-20 mg/kg, time 30.0 min
[11] = Induction of catalepsy in Sprague-Dawley rat assessed as increase in latency to move both forepaws at 5 to 100 mg/kg, po measured after 45 mins; format: organism-based; conditions: in vivo, 0.75 h, dose 5-100 mg/kg
Rattus norvegicus [12] = test: Inhibition of haloperidol-induced hyperprolactinemia in Sprague-Dawley rat assessed as reduction in prolactin release in plasma at 10 mg/kg, po administered 30 mins prior to 0.3 mg/kg haloperidol challenge and measured after 60 mins by ELISA; format: functional, organism-based; conditions: time 90.0 min
Mus musculus [13] = test: Increase in PPI in 129Sv/Ev mouse with low PPI at 10 mg/kg, po measured after 30 mins; format: functional, organism-based
[14] = Induction of catalepsy in Sprague-Dawley rat assessed as increase in latency to move both forepaws at 0.1 to 1 mg/kg, sc measured after 45 mins; format: organism-based; conditions: in vivo, 0.75 h, dose 0.1-1 mg/kg
[15] = Induction of hyperprolactinemia in Sprague-Dawley rat assessed as increase in prolactin release in plasma at 0.1 to 1 mg/kg, po measured after 60 mins by ELISA; format: organism-based; conditions: in vivo, 1 h, dose 0.1-1 mg/kg

G-protein coupled receptor 52 (Mus musculus), sequence (P0C5J4 whole entry): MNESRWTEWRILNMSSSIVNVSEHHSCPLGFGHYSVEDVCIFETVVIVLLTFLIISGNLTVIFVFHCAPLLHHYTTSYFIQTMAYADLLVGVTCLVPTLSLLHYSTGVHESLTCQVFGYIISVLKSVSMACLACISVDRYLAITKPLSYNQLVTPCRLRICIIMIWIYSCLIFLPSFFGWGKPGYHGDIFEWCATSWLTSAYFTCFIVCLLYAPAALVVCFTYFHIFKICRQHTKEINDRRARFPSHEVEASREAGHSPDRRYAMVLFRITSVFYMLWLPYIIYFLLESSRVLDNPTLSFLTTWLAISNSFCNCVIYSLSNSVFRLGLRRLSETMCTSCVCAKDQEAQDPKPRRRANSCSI

| SMILES | inhibition [1] | Kp at 1 h [2] | further results |
| --- | --- | --- | --- |
| NC(=O)c1cccc2c1CCN2c1cc(Cc2ccc(F)c(Cl)c2)ccn1 |  | 7.76 |  |
| O=C(NCCO)c1cccc2c1CCN2c1cc(Cc2cccc(C(F)(F)F)c2)ccn1 | 70% |  | Kp at 1 h [3]: 3.51; Activity (Rattus norvegicus [4]): Active; Activity [5]: Toxic; ED50 [6]: 2.7 mg/kg; Activity (Rattus norvegicus [7]): Active; Activity [8]: Non-Toxic; Activity (Mus musculus [9]): Active; Activity (Rattus norvegicus [10]): Active; Activity [11]: Non-Toxic; inhibition (Rattus norvegicus [12]): Active; Activity (Mus musculus [13]): Active |
| O=C(NC1CCN(CCO)CC1)c1cccc2c1CCN2c1cc(Cc2ccc3c(c2)CCO3)ccn1 |  | 0.16 |  |
| O=C(NCCO)c1c(F)ccc2c1CCN2c1cc(Cc2cccc(C(F)(F)F)c2)ccn1 |  | 1.67 |  |
| NC(=O)c1cccc2c1CCN2c1cc(Cc2ccc(F)c(C(F)(F)F)c2)ccn1 | 61% |  |  |
| NC(=O)c1cccc2c1CCN2c1cc(Cc2cccc(C(F)(F)F)c2)ccn1 |  |  | Kp at 1 h [3]: 4.49 |
| NC(=O)c1cccc2c1CCN2c1cc(Cc2cc(F)cc(Cl)c2)ccn1 |  | 12.4 |  |
| CC(=O)c1cccc(Cc2ccnc(N3CCc4c(C(N)=O)cccc43)c2)c1 | 72% | 1.36 |  |
| COc1ccc(Cc2ccnc(N3CCc4c(C(N)=O)cccc43)c2)cc1F | 66% | 6.32 |  |
| O=C(CCCN1CCC(O)(c2ccc(Cl)cc2)CC1)c1ccc(F)cc1 [HALOPERIDOL] |  |  | Activity [14]: Toxic; Activity [15]: Toxic |
| NC(=O)c1cccc2c1CCN2c1cc(Cc2cncc(C(F)(F)F)c2)ccn1 |  | 4.67 |  |
| NC(=O)c1cccc2c1CCN2c1cc(Cc2ccc3occc3c2)ccn1 | 81% |  |  |

Second part, led by results:

| inhibition [1] | Kp at 1 h [2] | SMILES | further results |
| --- | --- | --- | --- |
| 62% |  | COc1ccc(Cc2ccnc(N3CCc4c3ccc(F)c4C(=O)NC[C@@H](F)CO)c2)cc1F |  |
| 79% | 5.45 | O=C(NCCO)c1cccc2c1CCN2c1cc(Cc2cc(F)cc(Cl)c2)ccn1 |  |
|  | 0.87 | COc1ccc(Cc2ccnc(N3CCc4c(C(=O)NCCO)cccc43)c2)cc1F |  |
| 67% |  | COc1ccc(Cc2ccnc(N3CCc4c(C(=O)NC[C@@H](F)CO)cccc43)c2)cc1F |  |
| 68% |  | O=C(NCCO)c1c(F)ccc2c1CCN2c1cc(Cc2cc(F)c(F)c(F)c2)ccn1 |  |
| 68% |  | C[C@@H](O)CNC(=O)c1cccc2c1CCN2c1cc(Cc2cc(F)c(F)c(F)c2)ccn1 |  |
| 72% |  | COC[C@@H](O)CNC(=O)c1cccc2c1CCN2c1cc(Cc2cc(F)c(F)c(F)c2)ccn1 |  |
| 70% | 2.85 | O=C(NC[C@@H](F)CO)c1cccc2c1CCN2c1cc(Cc2cc(F)c(F)c(F)c2)ccn1 |  |
| 65% | 3 | O=C(NCCO)c1cccc2c1CCN2c1cc(Cc2cc(F)c(F)c(F)c2)ccn1 |  |
